“And” between values parts separate entries of the source, which are not always exact repeats. Equal values may be shown once.

Assay [1] concerns the target T1, Mitogen-activated protein kinase 14 (Homo sapiens, UniProt Q16539). The assay can be described thus: Active p38alpha cascade assay. The settings on record: pH 7.5; 25 °C. How it is done:
The reaction was run for 15 min atroom temperature. […] Under such

For assay [2], the target named is T1, Mitogen-activated protein kinase 14. The assay can be described thus: Unactivated p38alpha cascade assay. The settings on record: pH 7.5; 25 °C. How it is done:
Binding of inhibitors to unactivated p38a that leads to decreasedphosphorylation of p38alpha by MKK6 was determined by measuringthe activated p38alpha activity in the assay mixture with andwithout inhibitors. In a 20-lL reaction mixture containing 50 mMHepes, pH 7.5, 1 mM EGTA, 10 mM MgCl2, 0.01% (w / v) Brij35 and 200 µM DTT, unactivated p38a (2 nM) was preincubatedwith inhibitors at various concentrations for 30 min at roomtemperature. Ten microliters of 1 mM ATP and 1 nM active MKK6were then introduced to initiate p38a activation. The reaction wasrun at room temperature for 15 min. The mixture was thenimmediately diluted 100-fold so that the inhibitor concentrationwas reduced by 2 orders of magnitude and residual inhibitoryeffect was minimized. The reaction product, active p38alpha, wasthen calculated based on its catalytic activity to activate MK2 asdescribed in Active p38a cascade assay section.

T1 sequence (Q16539 whole entry): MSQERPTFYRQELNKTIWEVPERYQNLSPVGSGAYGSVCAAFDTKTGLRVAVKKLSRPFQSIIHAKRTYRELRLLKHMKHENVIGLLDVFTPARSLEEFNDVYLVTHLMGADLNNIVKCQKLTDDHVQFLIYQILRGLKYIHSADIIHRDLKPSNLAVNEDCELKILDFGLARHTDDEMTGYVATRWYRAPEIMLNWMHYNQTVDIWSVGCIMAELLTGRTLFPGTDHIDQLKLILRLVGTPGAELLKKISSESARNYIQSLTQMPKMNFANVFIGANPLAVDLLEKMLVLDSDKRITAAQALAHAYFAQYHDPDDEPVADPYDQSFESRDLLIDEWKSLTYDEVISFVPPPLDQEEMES

Take `CC(=O)c1cc(C(=O)NCc2ccc(-n3nc(C(C)(C)C)cc3NC(=O)Nc3cccc4ccccc34)cc2)ccc1C` [(5a) BIRB796]: the IC50 in assay [1] was determined as 933 nM; in assay [2] it was 8 nM.

In the case of `CC(=O)c1cc(C(=O)NC(O)(NCc2ccc(-n3nc(C(C)(C)C)cc3NC(=O)Nc3cccc4ccccc34)cc2)C2CCCC2)ccc1C` (stereo not given) [(5b) BIRB796], the results for the half-maximal inhibitory concentration (IC50) in assay [1] and in assay [2] were 1110 nM and 26 nM, respectively.

As to `Cc1ccc(C(=O)NCc2ccc(-n3nc(C(C)(C)C)cc3NC(=O)Nc3cccc4ccccc34)cc2)cc1C(=O)O` [(7a) BIRB796], the 50% inhibitory concentration (IC50) in assay [1] is 691 nM; in assay [2], 11 nM.

In the case of `Cc1ccc(C(=O)NC(O)(NCc2ccc(-n3nc(C(C)(C)C)cc3NC(=O)Nc3cccc4ccccc34)cc2)C2CCCC2)cc1C(=O)O` (stereo not given) [(7b) BIRB796], the IC50 stood at 1130 nM in assay [1] and 36 nM in assay [2].

For the molecule `Cc1cc(C(=O)NCc2ccc(-n3nc(C(C)(C)C)cc3NC(=O)Nc3cccc4ccccc34)cc2)ccc1C(=O)O` [(8a) BIRB796], the IC50 was 393 nM and 664 nM in assay [1]; 11 nM and 25 nM in assay [2].

Turning to `Cc1ccc(C(=O)NC(C)(O)NCc2ccc(-n3nc(C(C)(C)C)cc3NC(=O)Nc3ccccc3)cc2)cc1C(=O)O` (stereo not given) [(9a) BIRB796], the 50% inhibitory concentration (IC50) in assay [1] came out at 376 nM; in assay [2] it was 6 nM.

As for `Cc1ccc(C(=O)NC(O)(NC(=O)NCc2ccc(-n3nc(C(C)(C)C)cc3NC(=O)Nc3ccccc3)cc2)C2CCCC2)cc1C(=O)O` (stereo not given) [(9b) BIRB796], the 50% inhibitory concentration (IC50) turned out to be 810 nM in assay [1] and 22 nM in assay [2].

Take `Cc1cc(C(=O)NC(C)(O)NCc2ccc(-n3nc(C(C)(C)C)cc3NC(=O)Nc3ccccc3)cc2)ccc1C(=O)O` (stereo not given) [(10a) BIRB796]: the half-inhibitory concentration (IC50) was 261 nM in assay [1] and 7 nM in assay [2].

`Cc1ccc(C(=O)NC(=O)NCc2ccc(-n3nc(C(C)(C)C)cc3NC(=O)Nc3ccccc3)cc2)cc1C(=O)O` [(11a) BIRB796]: the IC50 in assay [1] came to 1080 nM; in assay [2] it was 11 nM.

As for `Cc1ccc(C(=O)[n+]2cccc(C(=O)NCc3ccc(-n4nc(C(C)(C)C)cc4NC(=O)Nc4ccccc4)cc3)c2)cc1C(=O)O` [(11b) BIRB796], the 50% inhibitory concentration (IC50) in assay [1] was found to be 1220 nM; in assay [2], 35 nM.

On to `Cc1cc(C(=O)NC(=O)NCc2ccc(-n3nc(C(C)(C)C)cc3NC(=O)Nc3ccccc3)cc2)ccc1C(=O)O` [(12a) BIRB796], for which the IC50 came to 1590 nM in assay [1] and 53 nM in assay [2].

For `Cc1cc(C(=O)[n+]2cccc(C(=O)NCc3ccc(-n4nc(C(C)(C)C)cc4NC(=O)Nc4ccccc4)cc3)c2)ccc1C(=O)O` [(12b) BIRB796], the IC50 in assay [1] came to 1470 nM; in assay [2], 62 nM.

In the case of `O=S1(=O)N=c2ccc3c4c(c5ccccc5c(c24)O1)OS(=O)(=O)N=3` [CP-232880], the half-inhibitory concentration (IC50) turned out to be 2100 nM in assay [1] and 1030 nM in assay [2].

Consider `Clc1ccc(-c2c[nH]c(-c3cc4ccccc4cn3)n2)cc1` [PF-00215924], for which the IC50 was found to be 1.8 nM in assay [1] and 110 nM in assay [2].

For the molecule `Brc1ccc(-c2c[nH]c(-c3cc4ccccc4cn3)n2)cc1` [PF-00215937], in assay [1], the half-maximal inhibitory concentration (IC50) was 1900 nM and > 12500 nM.

As for `Clc1cccc(-c2c[nH]c(-c3cc4ccccc4cn3)n2)c1` [PF-00240292], the 50% inhibitory concentration (IC50) in assay [1] is more than 12500 nM; in assay [2], 2300 nM.

`Brc1ccc(-c2c[nH]c(-c3cc4ccccc4cn3)n2)cc1` [PF-04764755]: the figures for the IC50 in assay [1] and in assay [2] were 2950 nM and 320 nM, respectively.

For the molecule `NCCC(=O)c1cccc(Oc2cccc(C(=O)CCN)c2)c1` [UK-146015], the IC50 was more than 12500 nM in assay [1] and 6000 nM in assay [2].

For the origin of these results see BindingDB's records for doi:10.1111/j.1747-0285.2009.00884.x (Pfizer, 2009).
